IC50 data for eleven molecules are collected here from patent publication US20250051321A1, “TRICYCLIC DERIVATIVE AND PREPARATION METHOD THEREFOR AND APPLICATION THEREOF” (SHANGHAI JEMINCARE PHARMACEUTICAL CO., LTD., priority 2021, published 2025).

As a reminder, the IC50 is the concentration at which inhibition is half-maximal.

Structures are written as SMILES.

The first assay has as its target ATX (Homo sapiens (Human), UniProt Q13822). Kind of assay: ATX enzyme inhibition assay (Amplex UltraRed/choline oxidase/HRP, 16:0 Lyso PC substrate). Type of assay: biochemical. Particulars: assay buffer pH 8.5; read-out: IC50 (nM) pH 8.5. On the procedure:
All compounds were prepared as a 10 mM DMSO stock solution.
Solutions at pH 8.5 and pH 7.5 were prepared respectively with the following formulations:
All compounds, including the positive control compound, were diluted 5-fold from 10 mM to 2 mM with DMSO in the first step. The mixture was then diluted to 100 μM with 1× assay buffer.
3. Separate Detection of Compounds with 1× Assay Buffer at Two pH Values:
a) 5 μL of 10× compound diluent was added to a 384-well plate (Greiner 781209) using a motorized pipette (see the “experimental preparation” step). 5 μL of 1× assay buffer containing 5% DMSO was added to both negative and positive control wells. The plate was centrifuged at 300 rpm for 1 minute at room temperature.
b) 2× ATX ([…]) was prepared with 1× assay buffer, and 25 μL of 2× ATX was added to the plate using a motorized pipette. 25 μL of 1× assay buffer was added to the negative control wells and 25 μL of 2× ATX was added to the positive control wells. The plate was centrifuged at 300 rpm for 1 minute at room temperature.
The plate was incubated at room temperature for 10 minutes.
c) 2.5× working solution containing Amplex UltraRed reagent (125 μM), HRP (2.5 U/mL), choline oxidase (1.25 U/mL), and 16:0 Lyso PC (75 μM) was prepared with 1× assay buffer. 20 μL of 2.5× working solution was added to all reaction wells using a motorized pipette. The plate was centrifuged at 300 rpm for 1 minute at room temperature.
d) The plate was detected by SpectraMax with the following procedures: fluorescence mode; excitation at 550 nm; emission at 590 nm; kinetics; read once every 2 minutes; read continuously for 60 minutes.
The calculation formula of % inhibition (i.e., % inhibition rate) was as follows: […]
V0: X-axis is taken as 0 to 30 minutes, Y-axis is taken as fluorescence readings, and the slope corresponding to the straight line fitted by the software GraphPad Prism 8 is the initial response rate.
V0max: Average V0 of the positive control wells in the plate.
V0min: Average V0 of the negative control wells in the plate.
The IC50 of the compounds was calculated from a nonlinear regression line (dose-initial response rate) fitted by % inhibition and log value of compound concentration using the software GrahPad Prism 8.
As to `C[C@H]1CN(c2cc(F)c3nc4c(c(N(C)c5nc(-c6ccc(F)cc6)c(C#N)s5)c3c2)CC[C@@H]4O)CCN1CC(=O)N1CC(O)C1` (single isomer, unassigned) [Example E8-a], the IC50 came to 22.5 nM.
On the same count and under the same terms, then `C[C@@H]1CN(c2cc(F)c3nc4c(c(N(C)c5nc(-c6ccc(F)cc6)c(C#N)s5)c3c2)CC[C@@H]4O)CCN1CC(=O)N1CC(O)C1` (single isomer, unassigned) [Example E9-a], with 21.5 nM; and `C[C@@H]1CN(c2cc(F)c3nc4c(c(N(C)c5nc(-c6ccc(F)cc6)c(C#N)s5)c3c2)CC[C@H]4O)CCN1CC(=O)N1CC(O)C1` (single isomer, unassigned) [Example E9-b], with 18.4 nM; and `CN(c1nc(-c2ccc(F)cc2)c(C#N)s1)c1c2c(nc3c(F)cc(N4CCN(CC(=O)N5CC(C)(O)C5)CC4)cc13)[C@@H](O)CC2` (single isomer, unassigned) [Example E10-a], with 17.9 nM.
Still for that read-out and setting: then `CN(c1nc(-c2ccc(F)cc2)c(C#N)s1)c1c2c(nc3c(F)cc(N4CCN(CC(=O)N5CC(C)(O)C5)CC4)cc13)[C@H](O)CC2` (single isomer, unassigned) [Example E10-b], with 14.4 nM.
Still for that read-out and setting: then `CN(c1nc(-c2ccc(F)cc2)c(C#N)s1)c1c2c(nc3c(F)cc(N4CC5(CN(C(=O)[C@@H]6CCOC6)C5)C4)cc13)[C@@H](O)CC2` (single isomer, unassigned) [Example E13-a], with 19.8 nM.
Take `CN(c1nc(-c2ccc(F)cc2)c(C#N)s1)c1c2c(nc3c(F)cc(N4CC5(CN(C(=O)C6(O)CCOCC6)C5)C4)cc13)[C@@H](O)CC2` (single isomer, unassigned) [Example E15-a]: the IC50 is 14.9 nM.
On the same count and under the same terms, under `CN(c1nc(-c2ccc(F)cc2)c(C#N)s1)c1c2c(nc3c(F)cc(N4CC5(CN(C(=O)[C@]6(O)CCOC6)C5)C4)cc13)[C@H](O)CC2` (single isomer, unassigned) [Example E19-1a] stands 22.9 nM.
Still for that read-out and setting: then `CN(c1nc(-c2ccc(F)cc2)c(C#N)s1)c1c2c(nc3c(F)cc(N4CC5(CN(C(=O)[C@]6(O)CCOC6)C5)C4)cc13)[C@@H](O)CC2` (single isomer, unassigned) [Example E19-1b], with 27.2 nM; and `CN(c1nc(-c2ccc(F)cc2)c(C#N)s1)c1c2c(nc3c(F)cc(N4CC5(CN(C(=O)[C@@]6(O)CCOC6)C5)C4)cc13)[C@@H](O)CC2` (single isomer, unassigned) [Example E19-2a], with 26.7 nM.
Take `CN(c1nc(-c2ccc(F)cc2)c(C#N)s1)c1c2c(nc3c(F)cc(N4CC5(CN(C(=O)[C@@]6(O)CCOC6)C5)C4)cc13)[C@@H](O)CC2` (single isomer, unassigned) [Example E19-2b]: the IC50 was determined as 334 nM.

Another assay deals with plasma LPA 18:1 and LPA 18:2. Kind of assay: Human plasma ex vivo assay (LPA 18:1 / 18:2 by LC-MS/MS). The following applies: 37° C., 2 hours, LPA 18:1, read-out: Human plasma ex vivo assay IC50 (18:1 LPA). Type of assay: biochemical. The method, then: The collected plasma was centrifuged at 4000 rpm for 15 minutes at 4° C. The supernatant was aliquoted into a 96-well plate (25 μL per well), sealed, and frozen at −80° C. for further use.
LPA 17:0 powder was dissolved in a mixed solution of water: isopropanol: formic acid (1:1:1) to a final concentration of […]. The mixture was aliquoted and frozen at −20° C.
1 volume of formic acid was added to 1000× methanol, mixed well, and stored at 4° C. a) The 96-well plate containing frozen plasma was removed from the −80° C. freezer and thawed on ice at room temperature. b) 6 μL of 50× LPA 17:0 (internal standard) and 264 μL of 0.1% FA were added to a clean well of the 96-well plate; the final concentration of LPA 17:0 (internal standard) was 50 nM. c) 6× compound was 1:3 serially diluted to a total of 8 concentrations, and 5 μL of the compound per well was added to the 96-well plate containing plasma. The maximum final concentration of the compound was 10 μM, and the final concentration of DMSO was 0.1%. The plate was centrifuged at 300 rpm for 30 seconds. The DMSO control sample reacted for 0 hours was used as the minimum value (Min), and the DMSO control sample reacted for 2 hours was used as the maximum value (Max). […]
d) The DMSO sample reacted for 0 hours was rapidly transferred to 0.1% FA solution containing the internal standard in step b) to terminate the reaction and precipitate plasma proteins. e) The 96-well plate containing plasma and compounds was rapidly incubated in a 37° C. incubator for 2 hours. After the incubation, 6 μL of 10× LPA 17:0 and 264 μL of 0.1% FA were added to each well to terminate the reaction and precipitate plasma proteins. […]
f) All the samples were mixed well with a pipette, and centrifuged at 4000 rpm for 10 minutes at 4° C. 150 μL of the supernatant was added to a 96-well U-bottom plate (Thermo 267245), sealed with silica gel, and then loaded. The contents of LPA 18:1 and LPA 18:2 in the samples were detected by LC-MS/MS system.
LPA 18:1(or 18:2) relative content=LPA 18:1(or 18:2) peak area/LPA 17:0 peak area Percentage reduction (%) in plasma LPA18:1(or 18:2)=(Max−X)/(Max−Min)*100 Max: LPA 18:1 (or 18:2) relative content of the DMSO sample reacted for 2 hours Min: LPA 18:1 (or 18:2) relative content of the DMSO sample reacted for 0 hours X: LPA 18:1 (or 18:2) relative content of the sample after compound treatment for 2 hours The IC50 of the compounds was calculated by fitting a nonlinear regression through percentage reduction in plasma LPA 18:1 (or 18:2) and log value of compound concentration using the software GraphPad Prism 8.
Y=Bottom+(Top−Bottom)/(1+10^((Log IC50−X)*Hill Slope))
Turning to `C[C@H]1CN(c2cc(F)c3nc4c(c(N(C)c5nc(-c6ccc(F)cc6)c(C#N)s5)c3c2)CC[C@@H]4O)CCN1CC(=O)N1CC(O)C1` (single isomer, unassigned) [Example E8-a], the IC50 worked out at 280 nM.
The same measure, in the same setting: then `C[C@@H]1CN(c2cc(F)c3nc4c(c(N(C)c5nc(-c6ccc(F)cc6)c(C#N)s5)c3c2)CC[C@@H]4O)CCN1CC(=O)N1CC(O)C1` (single isomer, unassigned) [Example E9-a], with 464 nM.
Same read-out and setting: then `C[C@@H]1CN(c2cc(F)c3nc4c(c(N(C)c5nc(-c6ccc(F)cc6)c(C#N)s5)c3c2)CC[C@H]4O)CCN1CC(=O)N1CC(O)C1` (single isomer, unassigned) [Example E9-b], with 209 nM.
Same read-out and setting: then `CN(c1nc(-c2ccc(F)cc2)c(C#N)s1)c1c2c(nc3c(F)cc(N4CCN(CC(=O)N5CC(C)(O)C5)CC4)cc13)[C@@H](O)CC2` (single isomer, unassigned) [Example E10-a], with 384 nM; and `CN(c1nc(-c2ccc(F)cc2)c(C#N)s1)c1c2c(nc3c(F)cc(N4CCN(CC(=O)N5CC(C)(O)C5)CC4)cc13)[C@H](O)CC2` (single isomer, unassigned) [Example E10-b], with 263 nM; and `CN(c1nc(-c2ccc(F)cc2)c(C#N)s1)c1c2c(nc3c(F)cc(N4CC5(CN(C(=O)[C@@H]6CCOC6)C5)C4)cc13)[C@@H](O)CC2` (single isomer, unassigned) [Example E13-a], with 385 nM.
With `CN(c1nc(-c2ccc(F)cc2)c(C#N)s1)c1c2c(nc3c(F)cc(N4CC5(CN(C(=O)C6(O)CCOCC6)C5)C4)cc13)[C@@H](O)CC2` (single isomer, unassigned) [Example E15-a], the IC50 is 392 nM.
Same read-out and setting: under `CN(c1nc(-c2ccc(F)cc2)c(C#N)s1)c1c2c(nc3c(F)cc(N4CC5(CN(C(=O)[C@]6(O)CCOC6)C5)C4)cc13)[C@H](O)CC2` (single isomer, unassigned) [Example E19-1a] stands 207 nM; under `CN(c1nc(-c2ccc(F)cc2)c(C#N)s1)c1c2c(nc3c(F)cc(N4CC5(CN(C(=O)[C@]6(O)CCOC6)C5)C4)cc13)[C@@H](O)CC2` (single isomer, unassigned) [Example E19-1b], 218 nM; under `CN(c1nc(-c2ccc(F)cc2)c(C#N)s1)c1c2c(nc3c(F)cc(N4CC5(CN(C(=O)[C@@]6(O)CCOC6)C5)C4)cc13)[C@@H](O)CC2` (single isomer, unassigned) [Example E19-2a], 207 nM.
Still for that read-out and setting: then `CN(c1nc(-c2ccc(F)cc2)c(C#N)s1)c1c2c(nc3c(F)cc(N4CC5(CN(C(=O)[C@@]6(O)CCOC6)C5)C4)cc13)[C@@H](O)CC2` (single isomer, unassigned) [Example E19-2b], with 113 nM.

Staying with this assay, now noted: 37° C., 2 hours, LPA 18:2, read-out: Human plasma ex vivo assay IC50 (18:2 LPA).
With `C[C@H]1CN(c2cc(F)c3nc4c(c(N(C)c5nc(-c6ccc(F)cc6)c(C#N)s5)c3c2)CC[C@@H]4O)CCN1CC(=O)N1CC(O)C1` (single isomer, unassigned) [Example E8-a], the 50% inhibitory concentration (IC50) stood at 324 nM.
On the same count and under the same terms, then `C[C@@H]1CN(c2cc(F)c3nc4c(c(N(C)c5nc(-c6ccc(F)cc6)c(C#N)s5)c3c2)CC[C@@H]4O)CCN1CC(=O)N1CC(O)C1` (single isomer, unassigned) [Example E9-a], with 392 nM.
Still for that read-out and setting: under `C[C@@H]1CN(c2cc(F)c3nc4c(c(N(C)c5nc(-c6ccc(F)cc6)c(C#N)s5)c3c2)CC[C@H]4O)CCN1CC(=O)N1CC(O)C1` (single isomer, unassigned) [Example E9-b] stands 199 nM.
Consider `CN(c1nc(-c2ccc(F)cc2)c(C#N)s1)c1c2c(nc3c(F)cc(N4CCN(CC(=O)N5CC(C)(O)C5)CC4)cc13)[C@@H](O)CC2` (single isomer, unassigned) [Example E10-a], for which the IC50 turned out to be 430 nM.
With `CN(c1nc(-c2ccc(F)cc2)c(C#N)s1)c1c2c(nc3c(F)cc(N4CCN(CC(=O)N5CC(C)(O)C5)CC4)cc13)[C@H](O)CC2` (single isomer, unassigned) [Example E10-b], the 50% inhibitory concentration (IC50) is 261 nM.
For `CN(c1nc(-c2ccc(F)cc2)c(C#N)s1)c1c2c(nc3c(F)cc(N4CC5(CN(C(=O)[C@@H]6CCOC6)C5)C4)cc13)[C@@H](O)CC2` (single isomer, unassigned) [Example E13-a], the IC50 came to 385 nM.
For `CN(c1nc(-c2ccc(F)cc2)c(C#N)s1)c1c2c(nc3c(F)cc(N4CC5(CN(C(=O)C6(O)CCOCC6)C5)C4)cc13)[C@@H](O)CC2` (single isomer, unassigned) [Example E15-a], the IC50 amounted to 388 nM.
Still for that read-out and setting: then `CN(c1nc(-c2ccc(F)cc2)c(C#N)s1)c1c2c(nc3c(F)cc(N4CC5(CN(C(=O)[C@]6(O)CCOC6)C5)C4)cc13)[C@H](O)CC2` (single isomer, unassigned) [Example E19-1a], with 362 nM; and `CN(c1nc(-c2ccc(F)cc2)c(C#N)s1)c1c2c(nc3c(F)cc(N4CC5(CN(C(=O)[C@]6(O)CCOC6)C5)C4)cc13)[C@@H](O)CC2` (single isomer, unassigned) [Example E19-1b], with 479 nM.
On the same count and under the same terms, under `CN(c1nc(-c2ccc(F)cc2)c(C#N)s1)c1c2c(nc3c(F)cc(N4CC5(CN(C(=O)[C@@]6(O)CCOC6)C5)C4)cc13)[C@@H](O)CC2` (single isomer, unassigned) [Example E19-2a] stands 203 nM; under `CN(c1nc(-c2ccc(F)cc2)c(C#N)s1)c1c2c(nc3c(F)cc(N4CC5(CN(C(=O)[C@@]6(O)CCOC6)C5)C4)cc13)[C@@H](O)CC2` (single isomer, unassigned) [Example E19-2b], 310 nM.
